From ChEMBL document CHEMBL1201862, “PubChem BioAssay data set” (2004)
The source made the active and inactive calls. No stated cut-off is given here; in the data, actives have a measured EC50 and inactives only a lower limit.

Tested on: not listed separately
Assay: NIH-3T3 fibroblast cytotoxicity, dose response, cytotoxicity control, cell-based, fluorescence, Alamar Blue, secondary assay (AID 2327);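 further: NIH-3T3 mouse fibroblasts cultured with fluconazole at 8 µg/mL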
Assay type: functional
Conditions: not given
With `Clc1ccccc1-c1nc2ccccc2c2nc3ccccc3n12` the EC50 was > 150 µM (inactive).
For `Cc1cccc(N2C(=O)NC(=O)/C(=C/Nc3ccccc3N)C2=O)c1`, the EC50 was > 160 µM (inactive).
With `Cc1ccc(C)c(S(=O)(=O)Nc2ccccc2C(=O)Nc2cc(C)on2)c1` the EC50 was > 160 µM (inactive).

Molecular target: T1, RNA-binding protein pos-1 (Caenorhabditis elegans, UniProt G5EF15)
T1 sequence (G5EF15 whole entry): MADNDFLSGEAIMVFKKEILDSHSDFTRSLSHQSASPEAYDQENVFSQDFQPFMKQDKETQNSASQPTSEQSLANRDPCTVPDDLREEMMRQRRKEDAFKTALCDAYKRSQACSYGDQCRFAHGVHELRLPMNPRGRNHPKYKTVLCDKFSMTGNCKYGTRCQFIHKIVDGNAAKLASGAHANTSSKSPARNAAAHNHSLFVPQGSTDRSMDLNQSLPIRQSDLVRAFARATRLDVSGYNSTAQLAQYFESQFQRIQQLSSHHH
Assay: disruptors of C. elegans POS-1 RNA interaction – biochemical, fluorescence polarization, dose response (AID 1964);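 further: purified POS-1 fused to maltose binding protein made in E. coli; potency of compounds blocking POS-1 binding to fluorescent RNA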
Conditions: not given
In the case of `COC(=O)c1c(C(=O)OC)c2n(c1C)Cc1ccccc1C2`, the EC50 is reported as > 300 µM (not active).
With `Cc1cccn2c(=O)c3cc(C(=O)NCC4CCCO4)c(=N)n(CCc4ccccc4)c3nc12` (stereo not drawn) the EC50 was 102 µM (active).
In the case of `CC(=O)c1cc(NC(=O)c2ccc(Cl)cc2)c(=O)oc1/C=C/N(C)C`, the EC50 is reported as 57.3 µM (active).
With `CC1(C)CC(=O)C2=C(C1)OC(N)=C(C#N)C2c1ccccc1OC(=O)N1CCOCC1` (stereo not drawn) the EC50 was > 300 µM (not active).
For `Cc1nc2ccc(N3CCN(C)CC3)cc2nc1C`, the EC50 was > 300 µM (not active).
In the case of `CCCCOC(=O)CSC1=C(C#N)C(c2ccccc2OCC)C(C#N)C(=O)N1` (stereo not drawn), the EC50 is reported as > 300 µM (not active).

Molecular target: T2, Zinc finger protein mex-5 (Caenorhabditis elegans, UniProt Q9XUB2)
T2 sequence (Q9XUB2 whole entry): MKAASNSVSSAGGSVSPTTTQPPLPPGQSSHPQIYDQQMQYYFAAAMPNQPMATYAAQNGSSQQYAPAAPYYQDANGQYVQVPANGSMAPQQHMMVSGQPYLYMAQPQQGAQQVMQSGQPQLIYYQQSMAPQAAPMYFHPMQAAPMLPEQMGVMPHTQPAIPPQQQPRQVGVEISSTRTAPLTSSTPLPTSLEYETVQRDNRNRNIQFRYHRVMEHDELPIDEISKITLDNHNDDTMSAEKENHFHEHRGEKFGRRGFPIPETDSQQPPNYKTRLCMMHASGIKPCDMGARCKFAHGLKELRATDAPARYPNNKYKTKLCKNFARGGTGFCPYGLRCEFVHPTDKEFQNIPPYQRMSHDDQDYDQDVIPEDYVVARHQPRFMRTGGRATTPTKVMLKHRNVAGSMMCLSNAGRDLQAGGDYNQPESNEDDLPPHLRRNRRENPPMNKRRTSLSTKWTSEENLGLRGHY
Assay: potency of MEX-5 RNA-binding blockers – biochemical, C. elegans, fluorescence polarization, dose response (AID 1960)
Conditions: not given
In the case of `COC(=O)c1c(C(=O)OC)c2n(c1C)Cc1ccccc1C2`, the EC50 is reported as 43.7 µM (active).
In the case of `Cc1cccn2c(=O)c3cc(C(=O)NCC4CCCO4)c(=N)n(CCc4ccccc4)c3nc12` (stereo not drawn), the EC50 is reported as 7.9 µM (inconclusive).
For `CC(=O)c1cc(NC(=O)c2ccc(Cl)cc2)c(=O)oc1/C=C/N(C)C`, the EC50 was 4.07 µM (active).
For `CC1(C)CC(=O)C2=C(C1)OC(N)=C(C#N)C2c1ccccc1OC(=O)N1CCOCC1` (stereo not drawn), the EC50 was > 300 µM (not active).
For `Cc1nc2ccc(N3CCN(C)CC3)cc2nc1C`, the EC50 was > 300 µM (not active).
In the case of `CCCCOC(=O)CSC1=C(C#N)C(c2ccccc2OCC)C(C#N)C(=O)N1` (stereo not drawn), the EC50 is reported as > 300 µM (inconclusive).

Molecular target: T3, Heat shock factor protein 1 (Mus musculus, UniProt P38532)
T3 sequence (P38532 whole entry): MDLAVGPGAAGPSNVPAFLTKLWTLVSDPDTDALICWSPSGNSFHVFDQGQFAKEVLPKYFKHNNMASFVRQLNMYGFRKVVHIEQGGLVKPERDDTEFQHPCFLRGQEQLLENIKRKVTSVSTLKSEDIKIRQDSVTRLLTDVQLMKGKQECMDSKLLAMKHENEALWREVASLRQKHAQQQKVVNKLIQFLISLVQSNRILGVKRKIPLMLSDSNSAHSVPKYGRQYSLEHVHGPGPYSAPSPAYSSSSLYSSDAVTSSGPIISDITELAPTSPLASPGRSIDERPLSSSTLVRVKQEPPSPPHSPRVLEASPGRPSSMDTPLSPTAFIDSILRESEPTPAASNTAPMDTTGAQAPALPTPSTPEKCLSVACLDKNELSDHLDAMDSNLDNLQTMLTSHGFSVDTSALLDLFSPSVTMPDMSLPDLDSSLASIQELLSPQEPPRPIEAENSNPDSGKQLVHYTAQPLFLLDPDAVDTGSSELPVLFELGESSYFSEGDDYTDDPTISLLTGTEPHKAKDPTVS
Assay: decrease of HSF1-responsive luciferase luminescence – cell-based, NIH3T3, dose retest, confirmation (AID 2382);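 further: NIH3T3 fibroblasts with HSF1-driven luciferase reporter stressed by proteasome inhibitor MG132; luminescence from HSF1-driven luciferase expression after 8 hours of MG132 stress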
Assay type: functional
Conditions: not given
With `Cc1ccc(NC(=O)Cc2ccc(-n3cccc3)cc2)c(C)c1` the EC50 was > 195 µM (not active).
With `Cc1ccc(-c2nnc(SCC(=O)Nc3nccs3)n2N)cc1` the EC50 was > 195 µM (not active).
In the case of `COc1ccc(Cn2nnnc2CN2CCc3ccccc3C2)cc1`, the EC50 is reported as > 195 µM (not active).
For `O=C(NCC(=O)N1CCN(c2ccccc2O)CC1)c1ccc(Br)o1`, the EC50 was > 195 µM (not active).
For `O=C(CN1CCN(C(=O)c2ccccc2)CC1)Nc1ncc(Br)cc1Br`, the EC50 was > 195 µM (not active).
For `CC(OC(=O)c1nsc(Cl)c1Cl)C(=O)NCc1ccc2c(c1)OCO2` (stereo not drawn), the EC50 was > 195 µM (not active).
With `COc1ccc(-n2c(C)c(C(C)=O)c(C(C)=O)c2C)cc1` the EC50 was > 195 µM (not active).
With `Cc1cc(C)c2oc(C(=O)Nc3ccc(S(=O)(=O)Nc4nccc(C)n4)cc3)cc(=O)c2c1` the EC50 was > 195 µM (not active).
For `COC(=O)C1(Cc2ccccc2)NC(c2ccccc2C)C2C(=O)N(c3ccc4c(c3)OCO4)C(=O)C21` (stereo not drawn), the EC50 was > 195 µM (not active).

Tested on: not listed separately
Assay: fluconazole-exposed Candida albicans growth modulators – fluorescence, retest, confirmation (AID 2467)
Assay type: functional, cell-based
Conditions: not given
For `Clc1ccccc1-c1nc2ccccc2c2nc3ccccc3n12`, the EC50 was 12.2 µM (active).
With `Cc1cccc(N2C(=O)NC(=O)/C(=C/Nc3ccccc3N)C2=O)c1` the EC50 was > 38 µM (not active).
With `Cc1ccc(C)c(S(=O)(=O)Nc2ccccc2C(=O)Nc2cc(C)on2)c1` the EC50 was 1.28 µM (active).

Molecular target: T4, Corticotropin-releasing factor receptor 2/Corticotropin-releasing factor-binding protein (Homo sapiens, UniProt P24387+Q13324)
T4 sequence (Q13324 whole entry): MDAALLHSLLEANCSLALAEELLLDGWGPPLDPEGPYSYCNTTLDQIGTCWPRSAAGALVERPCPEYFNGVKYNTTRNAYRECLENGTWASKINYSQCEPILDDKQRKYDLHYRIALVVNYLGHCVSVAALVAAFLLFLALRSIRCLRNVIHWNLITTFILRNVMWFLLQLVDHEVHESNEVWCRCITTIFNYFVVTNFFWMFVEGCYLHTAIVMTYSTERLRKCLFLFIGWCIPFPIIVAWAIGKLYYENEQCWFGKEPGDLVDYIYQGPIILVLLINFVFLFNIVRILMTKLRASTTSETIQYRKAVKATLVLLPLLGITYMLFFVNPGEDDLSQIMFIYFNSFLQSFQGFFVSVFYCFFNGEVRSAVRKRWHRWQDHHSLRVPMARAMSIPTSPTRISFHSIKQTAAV
T4 sequence (P24387 whole entry): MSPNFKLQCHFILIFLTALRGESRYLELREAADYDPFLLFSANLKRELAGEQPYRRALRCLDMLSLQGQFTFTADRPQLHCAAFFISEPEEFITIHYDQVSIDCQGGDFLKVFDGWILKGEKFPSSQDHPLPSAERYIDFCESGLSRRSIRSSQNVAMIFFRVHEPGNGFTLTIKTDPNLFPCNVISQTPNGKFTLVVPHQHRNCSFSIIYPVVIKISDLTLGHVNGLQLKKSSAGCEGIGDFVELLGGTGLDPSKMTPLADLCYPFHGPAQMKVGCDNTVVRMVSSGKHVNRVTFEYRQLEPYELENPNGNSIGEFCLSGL
Assay: activators of CRF receptor 2 with binding protein – uHTS hits, confirmation (AID 602473)
Assay type: functional
Conditions: read-out: EC50_Mean
In the case of `CC(=O)c1cc(NC(=O)c2ccc(Cl)cc2)c(=O)oc1/C=C/N(C)C`, the EC50 is reported as 5 µM (active).
